# Test results: patent US9290473B2, “Inhibitors of phosphatidylinositol-3-kinase (PI3) and inducers of nitric oxide (NO)” (COUCIL OF SCIENTIFIC & INDUSTRIAL RESEARCH, priority 2009, dated 2016)
# Read-outs that look alike come from different tables or passages of the source.
# What was measured:
# U937 cells = test: Morphology and apoptosis/necrosis in U937 cells (Giemsa; annexin V-FITC/PI flow cytometry); assay type: cell-based, human; conditions: 24 hours
# Protocol: U937 cells were treated with standard growth medium alone or with standard growth medium containing hydroxychavicol (30 μM) for 24 hours. Treated and untreated cells were stained with Giemsa and viewed under microscope (magnification ×1000). For measurement of apoptosis/necrosis, cells were left untreated or treated with Compound No. 1 (30 μM) or Compound No.7 (15 μM) for 24 hours. After washing, cells were stained with fluorescein isothiocyanate (FITC)-conjugated annexin V and propidium iodide (PI) and analysed in a flow cytometer (BD LSR, Becton Dickinson).
# FIG. 2B indicates flow cytometric determination of apoptosis and necrosis by Compound No.1 (hydroxychavicol) and Compound No.7. Apoptosis and necrosis of U937 cells were induced. Cells were left untreated (extreme left panel), or incubated with Compound No.1 (30 μM) (middle panel) or Compound No.7 (extreme right panel) (15 μM) for 24 hours and processed for flow cytometry after staining with annexin V-FITC and propidium iodide (PI). Viable cells are in the lower left quadrant (stained neither by annexin V nor by PI), early apoptotic cells (stained by annexin V only) are in the lower right quadrant, late-stage apoptotic cells (stained by both annexin V and PI) are in the upper right quadrant and the necrotic cells (stained by PI only) are in the upper left quadrant.
# PI3/Akt pathway = test: Activation of PI3/Akt pathway in MIA PaCa 2 cells (Western blot of Akt phosphorylation); assay type: cell-based, human; conditions: 30 μM, 24 hr, reversed by cPTIO 25 μM
# Protocol: MIA PaCa 2 cells were pretreated with NAC (5 mM), cPTIO (25 μM), PI3K inhibitor LY294002 (10 μM) for 3 hr followed by treatment with Compound 1 (30 μM) for 24 hr. Whole cell lysates were prepared and the phosphorylation status and protein expression of Akt were analyzed by Western blot. Cells were also treated with medium alone, Compound 1 (30 μM), c-PTIO (nitric oxide scavenger; 25 μM) or compound 1 plus c-PTIO for 24 hr.
# [1] = Sensitivity to spontaneous autooxidation (H2O2 level, TMB reagent); assay type: physicochemical; conditions: 30 µM, 30 min and 2 hr in medium alone, with and without Catalase; H2O2 in supernatant
# Protocol: Spontaneous autooxidation of compounds having phenolic groups produce reactive oxygen species like H2O2. The enzyme Catalase breaks down H2O2 to water, We therefore incubated Compound 1 and 7 (30 µM each) for 30 min and 2 hr in medium alone in the presence and absence of Catalase. Level of H2O2 in the supernatant was then measured as reported using 3,5,3′,5′-tetramethylbenzidine (TMB) reagent (Plant Physiology, 2004, 136, 3114-3123). FIG. 1 represents the data of sensitivity of spontaneous autooxidation of Compound 1 and Compound 7.
# [2] = test system: chronic myeloid leukemia cell line KU812; test: Cell viability, trypan blue exclusion, KU812; assay type: cell-based; conditions: Homo sapiens, 72 hours incubation
# Description: (§1) Following cancer cell lines were used: chronic myeloid leukemia cell lines K562, KU812; acute myeloid leukemia cell lines HL60, U937; T-lymphoblastic leukemia cell line Molt-4; prostate cancer cell line PC-3; breast cancer cell line MCF-7; pancreatic cancer cell line MIA PaCa-2. These cancer cell lines were maintained in tissue culture in standard growth medium containing 10% heat-inactivated fetal bovine serum (FBS). Normal human peripheral blood mononuclear cells (PBMC) were separated from whole blood by Ficoll/Hypaque density gradient centrifugation. Peripheral blood samples were collected from normal donors with due approval from the Human Ethics Committee of Indian Institute of Chemical Biology, Kolkata, India, and all experiments with human blood were conducted under an approved institutional Human Ethics committee protocol. Informed consent was provided according to the Declaration of Helsinki. Cancer cell lines and PBMC (5×10^3) in triplicate were incubated in 0.2 mL of standard growth medium containing 10% FBS with varying concentrations of test compounds of the present invention. After 72 hours of incubation, cells were collected by centrifugation (at 1000 g for 5 minutes) and cell-viability was determined by the trypan blue exclusion assay. At least 200 cells were examined in each sample. Because of monolayer culture, treated and untreated PC-3, MCF-7 and MIA PaCa-2 cells were detached from the wells by treatment with Cell Dissociation Solution (Sigma Chemical, St. Louis, Mo.) before counting. Data are represented as IC50 (minimum concentration required to inhibit the viability by 50%) in Table 5.
# [3] = test system: breast cancer cell line MCF-7; test: Cell viability, trypan blue exclusion, MCF-7; assay type: cell-based, human; conditions: 72 hours incubation
# Description: as §1
# [4] = test system: pancreatic cancer cell line MIA PaCa-2; test: Cell viability, trypan blue exclusion, MIA PaCa-2; assay type: cell-based, human; conditions: 72 hours incubation, read-out: Activity (IC50) MIAPaCa-2
# Description: as §1
# [5] = test system: acute myeloid leukemia cell line U937; test: Cell viability, trypan blue exclusion, U937; assay type: cell-based; conditions: Homo sapiens, U-937, 72 hours incubation
# Description: as §1
# [6] = test system: Ehrlich ascites carcinoma (EAC); test: Ehrlich ascites carcinoma (EAC) model in vivo; conditions: 30 mg/kg body weight intraperitoneally thrice a week for three weeks, Swiss albino mice
# Description: The in vitro studies indicate that hydroxychavicol and other compounds of the present invention induce killing of a variety of cancer cell lines including breast cancer cell line MCF-7 (Table 5). The MCF-7 cell line is of epithelial origin. Studies were extended in vivo in mouse model for a tumor of epithelial origin. Ehrlich ascites carcinoma is a tumor of epithelial origin (Cancer Research, 1958, 18, 1167-1185). EAC was established in Swiss albino mice as described (Biochemical and Biophysical Research Communications, 2001, 288, 658-665). Swiss albino mice were injected with EAC (2×10^6 cells/mouse) intraperitoneally. 2 days post-injection of tumor cells, these mice (5 per group) were injected intraperitoneally with Compound No. 1 (hydroxychavicol) (30 mg/kg body weight) or Compound No. 7 (30 mg/kg body weight) thrice a week for three weeks. One week after the last injection, mice were sacrificed, and viable cells from peritoneal cavity were counted microscopically. Vehicle (dimethyl sulphoxide [DMSO], 0.1%) was used as control.
# [7] = test system: T-lymphoblastic leukemia cell line Molt-4; test: Cell viability, trypan blue exclusion, Molt-4; assay type: cell-based, human; conditions: 72 hours incubation
# Description: as §1
# [8] = test system: Normal human peripheral blood mononuclear cells (PBMC); test: Cell viability, trypan blue exclusion, normal PBMC; assay type: cell-based; conditions: 72 hours incubation
# Description: as §1
# [9] = test system: chronic myeloid leukemia cell line K562; test: Cell viability, trypan blue exclusion, K562; assay type: cell-based; conditions: Homo sapiens
# Description: as §1
smiles,measurement,setting,value
"C=CCc1ccc(O)c(O)c1 [Compound 1, 4-allyl-benzene-1,2-diol]",Morphology of U937 cells (mode of killing),"U937 cells; 30 μM, Giemsa staining, microscopy",due to both apoptosis and necrosis
same,Apoptosis and necrosis of U937 cells by flow cytometry,"U937 cells; Compound No.1 30 μM, Compound No.7 15 μM, annexin V-FITC/PI",induce apoptosis and necrosis
same,Effect on activation of PI3/Akt pathway,PI3/Akt pathway,inhibitis the activation of PI3/Akt pathway
same,Sensitivity to spontaneous autooxidation,[1],undergoes spontaneous autooxidation
same,IC50,[2],25 µM
same,IC50,[3],35 µM
same,IC50,"[3]; Homo sapiens, MCF7, 72 h",25 to 70 µM
same,IC50,[4],35 µM
same,IC50,"[4]; Homo sapiens, MIA PaCa-2, 72 h",30 to 70 µM
same,IC50,[5],25 µM
same,In vivo efficacy against EAC tumor (viable cells from peritoneal cavity),[6],effective in vivo in destroying EAC tumor
same,IC50,[7],30 µM
same,IC50,"[7]; Homo sapiens, MOLT-4, 72 h",15 to 50 µM
same,IC50,[8],80 µM
same,IC50,"[9]; K562, 72 hours incubation, trypan blue exclusion, read-out: Activity (IC50) K562",20 µM
same,IC50,"[9]; read-out: IC50 against chronic myeloid leukemia cancer cell lines (K562), range over both cell lines K562, KU812 and KU812 and over the listed compounds, read-out: IC50 against chronic myeloid leukemia cancer cell lines (K562, KU812)",13 to 52 µM
